This passage reports IC50 results from article PMC5937091, “Efficacy of Alpha Glucosidase Inhibitor from Marine Actinobacterium in the Control of Postprandial Hyperglycaemia in Streptozotocin (STZ) Induced Diabetic Male Albino Wister Rats” (Iranian Journal of Pharmaceutical Research : IJPR, 2018).

This assay deals with T1, mammalian α-glucosidase (rat α-glucosidase; rat-intestinal acetone powder).
T1 construct: gene Si; crude soluble supernatant of sonicated rat-intestinal acetone powder (Sigma-Aldrich); native, not purified
Put plainly: colorimetric inhibition assay, absorbance at […] nm. The assay is classed as biochemical. As to conditions: substrate p-nitrophenyl α-D-glucopyranoside, phosphate buffer pH 6.8, 37 °C (as in screening protocol); mode printed both as competitive and as non-competitive.

Values after ≈ are worked out from the molar mass of the structure shown.

For orientation: IC50 means the concentration that inhibits the measured activity by half. Read a low IC50 as inhibition by little substance.

Turning to `CN1C(=O)C(CCl)N(C(=O)OC(C)(C)C)C1C(C)(C)C` (stereo not shown) [2-t-butyl-5-chloromethyl-3-methyl-4-oxoimidazolidine-1-carboxylic acid, t-butyl ester], the IC50 was 32.08 mg/L (≈ 105 µM).
